Data as given in patent US20030133929A1 (priority 2002, published 2003).

Legend:
virus particles = assay: electron microscope study of virus particles before and after inactivation; conditions: inactivation for 60 min, 1 min and 30 seconds
[1] = test system: Sinbis, Sendai and VSV viruses; conditions: 4° C.; cited from earlier work
HIV virus = conditions: 5 minute contact, room temperature; ether removed by distillation at 50-52° C.; cited from earlier work
[2] = biological target: blood protein factor VIII (Homo sapiens, UniProt P00451); conditions: cited from earlier work
Sequence of blood protein factor VIII (P00451 20-2351): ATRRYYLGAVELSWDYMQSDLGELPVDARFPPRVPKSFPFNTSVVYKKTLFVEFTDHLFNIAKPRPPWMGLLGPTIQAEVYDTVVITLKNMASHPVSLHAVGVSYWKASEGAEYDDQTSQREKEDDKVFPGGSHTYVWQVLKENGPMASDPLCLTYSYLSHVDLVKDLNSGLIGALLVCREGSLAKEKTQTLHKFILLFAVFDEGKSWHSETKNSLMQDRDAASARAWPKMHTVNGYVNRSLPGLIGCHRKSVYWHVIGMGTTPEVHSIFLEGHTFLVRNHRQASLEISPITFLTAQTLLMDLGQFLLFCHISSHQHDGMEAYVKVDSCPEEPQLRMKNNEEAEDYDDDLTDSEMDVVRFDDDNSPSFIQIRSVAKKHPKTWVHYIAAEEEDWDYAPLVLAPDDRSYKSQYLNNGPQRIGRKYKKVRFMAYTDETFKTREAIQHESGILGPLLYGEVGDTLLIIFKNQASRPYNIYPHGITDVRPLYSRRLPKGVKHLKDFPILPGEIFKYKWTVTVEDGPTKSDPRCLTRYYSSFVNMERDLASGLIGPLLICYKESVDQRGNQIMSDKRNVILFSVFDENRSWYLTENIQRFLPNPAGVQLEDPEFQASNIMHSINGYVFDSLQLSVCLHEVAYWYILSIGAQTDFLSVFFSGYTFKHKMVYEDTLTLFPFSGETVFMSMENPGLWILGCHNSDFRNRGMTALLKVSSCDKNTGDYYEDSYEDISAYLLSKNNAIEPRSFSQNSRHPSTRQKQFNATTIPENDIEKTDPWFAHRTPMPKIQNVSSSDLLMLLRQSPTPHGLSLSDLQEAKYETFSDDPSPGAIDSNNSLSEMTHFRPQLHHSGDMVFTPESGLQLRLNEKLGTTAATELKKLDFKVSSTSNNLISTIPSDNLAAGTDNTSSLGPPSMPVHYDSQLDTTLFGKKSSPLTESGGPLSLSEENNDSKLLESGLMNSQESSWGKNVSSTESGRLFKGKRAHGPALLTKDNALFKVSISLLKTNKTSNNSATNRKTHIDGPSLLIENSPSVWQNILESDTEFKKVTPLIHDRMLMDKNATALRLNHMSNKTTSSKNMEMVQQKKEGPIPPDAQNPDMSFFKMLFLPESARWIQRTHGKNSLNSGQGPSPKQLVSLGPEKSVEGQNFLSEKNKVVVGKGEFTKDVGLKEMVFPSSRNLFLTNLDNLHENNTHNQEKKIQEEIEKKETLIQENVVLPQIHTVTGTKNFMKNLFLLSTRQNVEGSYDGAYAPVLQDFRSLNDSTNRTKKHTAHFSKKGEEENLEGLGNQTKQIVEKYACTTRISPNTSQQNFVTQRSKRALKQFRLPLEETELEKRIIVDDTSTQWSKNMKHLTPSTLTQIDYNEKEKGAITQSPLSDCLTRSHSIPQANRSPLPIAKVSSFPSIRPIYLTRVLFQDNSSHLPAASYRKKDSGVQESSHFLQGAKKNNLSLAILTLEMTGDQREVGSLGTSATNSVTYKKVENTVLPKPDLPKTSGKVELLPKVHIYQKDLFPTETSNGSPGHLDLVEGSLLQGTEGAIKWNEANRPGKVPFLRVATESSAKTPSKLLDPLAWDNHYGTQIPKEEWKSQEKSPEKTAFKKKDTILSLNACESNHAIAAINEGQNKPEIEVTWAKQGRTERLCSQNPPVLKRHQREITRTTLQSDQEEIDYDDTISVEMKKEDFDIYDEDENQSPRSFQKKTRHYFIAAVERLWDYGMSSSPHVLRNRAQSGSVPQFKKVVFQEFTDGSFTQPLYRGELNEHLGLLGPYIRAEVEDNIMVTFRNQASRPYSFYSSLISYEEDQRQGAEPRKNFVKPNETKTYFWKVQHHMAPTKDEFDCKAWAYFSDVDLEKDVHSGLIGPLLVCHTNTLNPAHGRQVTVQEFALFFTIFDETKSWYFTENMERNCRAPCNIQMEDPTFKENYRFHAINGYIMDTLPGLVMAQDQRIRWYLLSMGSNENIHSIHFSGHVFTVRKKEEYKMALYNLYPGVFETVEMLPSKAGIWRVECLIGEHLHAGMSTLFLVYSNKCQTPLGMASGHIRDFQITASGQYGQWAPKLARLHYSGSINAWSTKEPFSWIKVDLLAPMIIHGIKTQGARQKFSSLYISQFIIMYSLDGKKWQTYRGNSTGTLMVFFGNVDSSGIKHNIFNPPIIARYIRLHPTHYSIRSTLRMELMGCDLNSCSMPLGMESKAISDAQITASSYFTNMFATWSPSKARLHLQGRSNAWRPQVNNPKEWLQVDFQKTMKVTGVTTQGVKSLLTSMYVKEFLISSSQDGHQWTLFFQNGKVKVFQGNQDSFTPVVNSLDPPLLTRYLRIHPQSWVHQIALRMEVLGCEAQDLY

## CC(C)OC(C)C [DIPE, di-isopropyl ether]
Virus particles
  infectivity or visible virus particles by EM: no infectivity or visible virus particles detected

## CCOCC [diethyl ether]
[1]
  time to inactivate these viruses: many hours
HIV virus
  inactivation of the HIV virus: complete inactivation

## O=C1CCO1 [β-propiolactone]
[2]
  inactivation of factor VIII: up to 75%
